What was measured:
Assay in all cases: relative viability (nuclei count vs DMSO), 5 days (fraction); higher = more cells survive
IDH-C35 + Olaparib = compound: Cc1ccccc1C(C(=O)NC1CCCCC1)N(C(=O)Cn1ccnc1C)c1cccc(F)c1 [IDH-C35] + O=C(c1cc(Cc2n[nH]c(=O)c3ccccc23)ccc1F)N1CCN(C(=O)C2CC2)CC1 [Olaparib] (partner 8 µM)
In short: (§1)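 Values are medians from duplicate plates. Each reflects relative viability, defined as the nuclei count of treated wells over that of vehicle wells. Lung cancer cell lines in 1536-well plates were pin-tool dosed one day after seeding with one drug alone or with a fixed anchor-drug dose plus five library-drug doses (not always all listed) in √10 steps, then fixed, stained and imaged at 4× after 5 days.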

[1] = compound: CC1=C(C(=NN1)C)CC2=C(C3=C(S2)N(C(=O)N(C3=O)C)CC(C)C)C(=O)N4C[C@@H](CO4)O + CS(=O)(=O)CCNCc1ccc(-c2ccc3ncnc(Nc4ccc(OCc5cccc(F)c5)c(Cl)c4)c3c2)o1 [Lapatinib] (partner 2 µM)
In short: as §1

IDH-C35 + Crizotinib = compound: Cc1ccccc1C(C(=O)NC1CCCCC1)N(C(=O)Cn1ccnc1C)c1cccc(F)c1 [IDH-C35] + C[C@@H](Oc1cc(-c2cnn(C3CCNCC3)c2)cnc1N)c1c(Cl)ccc(F)c1Cl [Crizotinib] (partner 1 µM)
In short: as §1

[2] = compound: CC1=C(C(=NN1)C)CC2=C(C3=C(S2)N(C(=O)N(C3=O)C)CC(C)C)C(=O)N4C[C@@H](CO4)O + Cc1nc(Nc2ncc(C(=O)Nc3c(C)cccc3Cl)s2)cc(N2CCN(CCO)CC2)n1 [Dasatinib] (partner 0.075 µM)
In short: as §1

Cell Line | relative viability (IDH-C35 + Olaparib; first compound 0.08 µM) | relative viability (IDH-C35 + Olaparib; first compound 0.253 µM) | relative viability (IDH-C35 + Olaparib; first compound 0.8 µM) | relative viability (IDH-C35 + Olaparib; first compound 2.53 µM) | relative viability (IDH-C35 + Olaparib; first compound 8 µM) | relative viability ([1]; first compound 0.0025 µM) | relative viability ([1]; first compound 0.007906 µM) | relative viability ([1]; first compound 0.025 µM) | relative viability ([1]; first compound 0.07906 µM) | relative viability ([1]; first compound 0.25 µM) | relative viability (IDH-C35 + Crizotinib; first compound 0.08 µM) | relative viability (IDH-C35 + Crizotinib; first compound 0.253 µM) | relative viability (IDH-C35 + Crizotinib; first compound 0.8 µM) | relative viability (IDH-C35 + Crizotinib; first compound 2.53 µM) | relative viability (IDH-C35 + Crizotinib; first compound 8 µM) | relative viability ([2]; first compound 0.0025 µM) | relative viability ([2]; first compound 0.007906 µM) | relative viability ([2]; first compound 0.025 µM) | relative viability ([2]; first compound 0.07906 µM) | relative viability ([2]; first compound 0.25 µM)
HCC-44 | 0.987 | 0.927 | 0.988 | 0.964 | 0.923 | 1.01 | 1.1 | 0.988 | 0.908 | 1.11 | 0.848 | 0.794 | 0.719 | 0.801 | 0.733 | – | – | – | – | –
HCC-78 | 0.91 | 0.78 | 0.883 | 0.932 | 0.741 | 0.92 | 0.691 | 0.738 | 0.577 | 0.733 | 0.343 | 0.349 | 0.342 | 0.322 | 0.303 | 0.392 | 0.486 | 0.374 | 0.366 | 0.236
HCC-366 | 0.353 | 0.361 | 0.345 | 0.36 | 0.326 | 1.02 | 1.03 | 1.06 | 1.07 | 1.15 | 0.546 | 0.51 | 0.564 | 0.546 | 0.42 | 0.601 | 0.813 | 0.836 | 0.635 | 0.789
HCC-827 | 0.545 | 0.608 | 0.614 | 0.708 | 0.658 | 0.189 | 0.171 | 0.192 | 0.156 | 0.167 | 0.911 | 0.956 | 0.911 | 0.876 | 0.957 | 0.288 | 0.317 | 0.32 | 0.203 | 0.24
HOP-62 | 0.46 | 0.222 | 0.272 | – | 0.39 | 1.05 | 0.946 | 1.05 | 0.952 | 1.08 | 0.839 | 1.04 | 0.832 | – | 0.925 | 0.672 | 0.852 | 0.74 | 0.466 | 0.559
IA-LM | 0.872 | 0.88 | 0.731 | 0.744 | 0.963 | 1.04 | 0.863 | 0.924 | 0.816 | 1.05 | 0.94 | 0.874 | 0.741 | 0.755 | 0.704 | – | – | – | – | –
LC-2-ad | 0.728 | 0.707 | 0.715 | 0.729 | 0.702 | 1.01 | 0.893 | 0.993 | 0.912 | 1.14 | 0.463 | 0.454 | 0.426 | – | 0.485 | 0.726 | 0.474 | 0.626 | 0.545 | 0.588
LCLC-97TM1 | 0.322 | 0.291 | 0.341 | – | 0.47 | 0.721 | 0.776 | 0.896 | 0.972 | 1.13 | 0.366 | 0.281 | 0.291 | – | 0.293 | 0.898 | 0.897 | 0.735 | 0.852 | 0.878
LCLC-103H | 0.788 | 0.71 | 0.807 | 0.777 | 0.711 | – | – | – | – | – | 1.01 | 1.07 | 1 | 1.07 | 0.987 | 0.669 | 0.493 | 0.489 | 0.357 | 0.513
LK-2 | 0.842 | 0.772 | 0.575 | 0.701 | 0.73 | 0.987 | 0.933 | 0.787 | 0.903 | 0.851 | 0.223 | 0.23 | 0.215 | 0.209 | 0.233 | 0.231 | 0.296 | 0.308 | 0.253 | 0.275
LOU-NH91 | 0.949 | 0.976 | 0.888 | 0.852 | 0.919 | 0.74 | 0.755 | 0.815 | 0.781 | 0.813 | 0.741 | 0.754 | 0.722 | 0.743 | 0.751 | 0.61 | 0.588 | 0.55 | 0.54 | 0.619
NCI-H441 | 0.627 | 0.638 | 0.595 | 0.468 | 0.557 | – | – | – | – | – | 0.964 | 0.673 | 0.649 | 0.703 | 0.749 | 0.65 | 0.59 | 0.679 | 0.411 | 0.583
NCI-H522 | 0.594 | 0.687 | 0.657 | 0.59 | 0.746 | – | – | – | – | – | – | – | – | – | – | 0.971 | 0.97 | 0.763 | 0.649 | 0.662
NCI-H1299 | 1.04 | 0.977 | 0.979 | 1.04 | 0.998 | 0.953 | 0.992 | 0.93 | 0.935 | 0.986 | 0.97 | 0.953 | 0.981 | 0.923 | 0.93 | – | – | – | – | –
NCI-H1395 | 0.436 | 0.449 | 0.473 | 0.463 | 0.464 | 0.941 | 0.948 | 0.776 | 0.839 | 0.949 | – | – | – | – | – | 0.412 | 0.412 | 0.352 | 0.32 | 0.335
NCI-H1563 | – | – | – | – | – | 0.944 | 1.01 | 0.999 | 1.04 | 0.831 | 0.874 | 0.907 | 0.861 | 0.92 | 0.854 | 0.503 | 0.439 | 0.418 | 0.404 | 0.491
NCI-H1648 | – | 0.765 | 0.801 | 0.681 | 0.782 | – | – | – | – | – | – | – | – | – | – | – | – | – | – | –
NCI-H1703 | 0.293 | 0.47 | 0.441 | 0.383 | 0.434 | 1.14 | 1.37 | 1.02 | 1.14 | 1.08 | 0.582 | 0.875 | 1.09 | 0.636 | 0.823 | – | – | – | – | –
NCI-H1793 | 0.934 | 0.903 | 0.932 | 0.862 | 0.859 | 0.514 | 0.649 | 0.549 | 0.431 | 0.426 | – | – | – | – | – | 0.428 | 0.375 | 0.39 | 0.362 | 0.377
NCI-H2342 | 0.435 | 0.49 | 0.41 | 0.467 | 0.377 | – | – | – | – | – | – | – | – | – | – | 0.297 | 0.348 | 0.283 | 0.322 | 0.352
SW 900 | 0.915 | 0.819 | – | 1.02 | 0.83 | – | – | – | – | – | – | – | – | – | – | 0.768 | 0.696 | 0.614 | 0.476 | 0.559

Source: the supplement of paper PMC10307832
